Reference: ChEMBL document CHEMBL3779770, “Synthesis, biological evaluation and molecular docking study of some novel indole and pyridine based 1,3,4-oxadiazole derivatives as potential antitubercular agents” (Bioorg Med Chem Lett, 2016)
Converted amounts (≈) assume the structure as drawn.

Assays:
[1] = test system: Mycobacterium tuberculosis; experiment: Antitubercular activity against active state Mycobacterium tuberculosis H37Ra assessed as viable cells after 8 days by XTT reduction menadione assay; format: functional, organism-based; details: 192 h
Pseudomonas fluorescens = experiment: Antibacterial activity against Pseudomonas fluorescens NCIM 2036 after 8 hrs; format: functional, organism-based; details: NCIM 2036, 8 h
Staphylococcus aureus = experiment: Antibacterial activity against Staphylococcus aureus NCIM 2010 after 12 hrs; format: functional, organism-based; details: NCIM 2010, 12 h
HeLa = experiment: (§1) Cytotoxicity against human HeLa cells after 72 hrs by MTT assay; format: cell-based; details: hela, 72 h
[2] = as §1; format: cell-based; details: HeLa cells
A549 = experiment: (§2) Cytotoxicity against human A549 cells after 48 hrs by MTT assay; format: cell-based; details: a549, 48 h
[3] = as §2; format: cell-based; details: A549 cells
Bacillus subtilis = experiment: Antibacterial activity against Bacillus subtilis NCIM 2079 after 12 hrs; format: functional, organism-based; details: NCIM 2079, 12 h
Escherichia coli = experiment: Antibacterial activity against Escherichia coli NCIM 2688 after 8 hrs; format: functional, organism-based; details: NCIM 2688, 8 h
[4] = test system: Mycobacterium tuberculosis; experiment: Antitubercular activity against dormant state Mycobacterium tuberculosis H37Ra assessed as viable cells after 12 days by XTT reduction menadione assay; format: functional, organism-based; details: 288 h
[5] = Cytotoxicity against human PANC1 cells after 48 hrs by MTT assay; format: cell-based, PANC-1; details: for GI50 at 48 h: PANC1 cells; for GI90: panc-1, 48 h

O=C(/C=C\c1cccc(O)c1)N1N=C(c2ccncc2)OC1c1c[nH]c2ccccc12 (configuration not stated)
IC50 [1]: > 30 µg/mL | MIC [1]: > 30 µg/mL | IC50 (Pseudomonas fluorescens): 17.4 µg/mL (≈ 42.5 µM) | MIC (Pseudomonas fluorescens): 82.8 µg/mL (≈ 202 µM) | IC50 (Staphylococcus aureus): 18.2 µg/mL (≈ 44.5 µM) | MIC (Staphylococcus aureus): 84.4 µg/mL (≈ 206 µM) | GI90 (HeLa): > 30 µg/mL | GI50 at 72 h [2]: > 30 µg/mL | GI90 (A549): > 30 µg/mL | GI50 at 48 h [3]: > 30 µg/mL | IC50 (Bacillus subtilis): 19.8 µg/mL (≈ 48.4 µM) | MIC (Bacillus subtilis): 121 µg/mL (≈ 295 µM) | IC50 (Escherichia coli): 16.6 µg/mL (≈ 40.6 µM) | MIC (Escherichia coli): 49.2 µg/mL (≈ 120 µM) | IC50 [4]: > 30 µg/mL | MIC [4]: > 30 µg/mL | GI50 at 48 h [5]: > 30 µg/mL | GI90 [5]: > 30 µg/mL

O=C(/C=C\c1ccc(O)cc1)N1N=C(c2ccncc2)OC1c1c[nH]c2ccccc12 (configuration not stated)
IC50 [1]: > 30 µg/mL | MIC [1]: > 30 µg/mL | IC50 (Pseudomonas fluorescens): 45 µg/mL (≈ 110 µM) | MIC (Pseudomonas fluorescens): > 256 µg/mL | IC50 (Staphylococcus aureus): > 256 µg/mL | MIC (Staphylococcus aureus): > 256 µg/mL | GI90 (HeLa): > 30 µg/mL | GI50 at 72 h [2]: > 30 µg/mL | GI90 (A549): > 30 µg/mL | GI50 at 48 h [3]: > 30 µg/mL | IC50 (Bacillus subtilis): > 256 µg/mL | MIC (Bacillus subtilis): > 256 µg/mL | IC50 (Escherichia coli): > 256 µg/mL | MIC (Escherichia coli): > 256 µg/mL | IC50 [4]: > 30 µg/mL | MIC [4]: > 30 µg/mL | GI50 at 48 h [5]: > 30 µg/mL | GI90 [5]: > 30 µg/mL

COc1ccc(/C=C\C(=O)N2N=C(c3ccncc3)OC2c2c[nH]c3ccccc23)cc1 (configuration not stated)
IC50 [1]: > 30 µg/mL | MIC [1]: > 30 µg/mL | IC50 (Pseudomonas fluorescens): 15.7 µg/mL (≈ 37 µM) | MIC (Pseudomonas fluorescens): 101 µg/mL (≈ 239 µM) | IC50 (Staphylococcus aureus): 7.72 µg/mL (≈ 18.2 µM) | MIC (Staphylococcus aureus): 88.1 µg/mL (≈ 208 µM) | GI90 (HeLa): > 30 µg/mL | GI50 at 72 h [2]: > 30 µg/mL | GI90 (A549): > 30 µg/mL | GI50 at 48 h [3]: > 30 µg/mL | IC50 (Bacillus subtilis): 15.7 µg/mL (≈ 37 µM) | MIC (Bacillus subtilis): 156 µg/mL (≈ 369 µM) | IC50 (Escherichia coli): 14 µg/mL (≈ 33 µM) | MIC (Escherichia coli): 182 µg/mL (≈ 429 µM) | IC50 [4]: > 30 µg/mL | MIC [4]: > 30 µg/mL | GI50 at 48 h [5]: > 30 µg/mL | GI90 [5]: > 30 µg/mL

O=C(/C=C\c1ccccc1Cl)N1N=C(c2ccncc2)OC1c1c[nH]c2ccccc12 (configuration not stated)
IC50 [1]: 11.6 µg/mL (≈ 27.1 µM) | MIC [1]: > 30 µg/mL | IC50 (Pseudomonas fluorescens): 2.53 µg/mL (≈ 5.9 µM) | MIC (Pseudomonas fluorescens): 25.2 µg/mL (≈ 58.7 µM) | IC50 (Staphylococcus aureus): 3.33 µg/mL (≈ 7.76 µM) | MIC (Staphylococcus aureus): 29.2 µg/mL (≈ 68 µM) | GI90 (HeLa): > 30 µg/mL | GI50 at 72 h [2]: > 30 µg/mL | GI90 (A549): > 30 µg/mL | GI50 at 48 h [3]: > 30 µg/mL | IC50 (Bacillus subtilis): 4.13 µg/mL (≈ 9.63 µM) | MIC (Bacillus subtilis): 22 µg/mL (≈ 51.3 µM) | IC50 (Escherichia coli): 1.73 µg/mL (≈ 4.03 µM) | MIC (Escherichia coli): 27.6 µg/mL (≈ 64.3 µM) | IC50 [4]: > 30 µg/mL | MIC [4]: > 30 µg/mL | GI50 at 48 h [5]: > 30 µg/mL | GI90 [5]: > 30 µg/mL

O=C(/C=C\c1ccc(F)cc1)N1N=C(c2ccncc2)OC1c1c[nH]c2ccccc12 (configuration not stated)
IC50 [1]: > 30 µg/mL | MIC [1]: > 30 µg/mL | IC50 (Pseudomonas fluorescens): 7.33 µg/mL (≈ 17.8 µM) | MIC (Pseudomonas fluorescens): > 256 µg/mL | IC50 (Staphylococcus aureus): 12.9 µg/mL (≈ 31.3 µM) | MIC (Staphylococcus aureus): > 256 µg/mL | GI90 (HeLa): > 30 µg/mL | GI50 at 72 h [2]: > 30 µg/mL | GI90 (A549): > 30 µg/mL | GI50 at 48 h [3]: > 30 µg/mL | IC50 (Bacillus subtilis): 15.6 µg/mL (≈ 37.8 µM) | MIC (Bacillus subtilis): > 256 µg/mL | IC50 (Escherichia coli): 13.6 µg/mL (≈ 33 µM) | MIC (Escherichia coli): > 256 µg/mL | IC50 [4]: > 30 µg/mL | MIC [4]: > 30 µg/mL | GI50 at 48 h [5]: > 30 µg/mL | GI90 [5]: > 30 µg/mL

O=C(/C=C\c1cccc([N+](=O)[O-])c1)N1N=C(c2ccncc2)OC1c1c[nH]c2ccccc12 (configuration not stated)
IC50 [1]: > 30 µg/mL | MIC [1]: > 30 µg/mL | IC50 (Pseudomonas fluorescens): 20.9 µg/mL (≈ 47.5 µM) | MIC (Pseudomonas fluorescens): 55.7 µg/mL (≈ 127 µM) | IC50 (Staphylococcus aureus): 21.7 µg/mL (≈ 49.3 µM) | MIC (Staphylococcus aureus): 93.2 µg/mL (≈ 212 µM) | GI90 (HeLa): > 30 µg/mL | GI50 at 72 h [2]: > 30 µg/mL | GI90 (A549): > 30 µg/mL | GI50 at 48 h [3]: > 30 µg/mL | IC50 (Bacillus subtilis): 22.4 µg/mL (≈ 51 µM) | MIC (Bacillus subtilis): 86 µg/mL (≈ 196 µM) | IC50 (Escherichia coli): 19.2 µg/mL (≈ 43.7 µM) | MIC (Escherichia coli): 174 µg/mL (≈ 395 µM) | IC50 [4]: > 30 µg/mL | MIC [4]: > 30 µg/mL | GI50 at 48 h [5]: > 30 µg/mL | GI90 [5]: > 30 µg/mL

O=C(/C=C\c1cccc(Br)c1)N1N=C(c2ccncc2)OC1c1c[nH]c2ccccc12 (configuration not stated)
IC50 [1]: > 30 µg/mL | MIC [1]: > 30 µg/mL | IC50 (Pseudomonas fluorescens): 3.19 µg/mL (≈ 6.74 µM) | MIC (Pseudomonas fluorescens): 19.1 µg/mL (≈ 40.2 µM) | IC50 (Staphylococcus aureus): 2.01 µg/mL (≈ 4.25 µM) | MIC (Staphylococcus aureus): 21.1 µg/mL (≈ 44.5 µM) | GI90 (HeLa): > 30 µg/mL | GI50 at 72 h [2]: > 30 µg/mL | GI90 (A549): > 30 µg/mL | GI50 at 48 h [3]: > 30 µg/mL | IC50 (Bacillus subtilis): 4.74 µg/mL (≈ 10 µM) | MIC (Bacillus subtilis): 22.6 µg/mL (≈ 47.9 µM) | IC50 (Escherichia coli): 2.39 µg/mL (≈ 5.05 µM) | MIC (Escherichia coli): 18.2 µg/mL (≈ 38.6 µM) | IC50 [4]: > 30 µg/mL | MIC [4]: > 30 µg/mL | GI50 at 48 h [5]: > 30 µg/mL | GI90 [5]: > 30 µg/mL

O=C(/C=C/c1c(Cl)cccc1Cl)N1N=C(c2ccncc2)OC1c1c[nH]c2ccccc12 (configuration not stated)
IC50 [1]: 12.7 µg/mL (≈ 27.4 µM) | MIC [1]: > 30 µg/mL | IC50 (Pseudomonas fluorescens): 15.6 µg/mL (≈ 33.6 µM) | MIC (Pseudomonas fluorescens): > 256 µg/mL | IC50 (Staphylococcus aureus): 86.8 µg/mL (≈ 187 µM) | MIC (Staphylococcus aureus): 148 µg/mL (≈ 320 µM) | GI90 (HeLa): > 30 µg/mL | GI50 at 72 h [2]: > 30 µg/mL | GI90 (A549): > 30 µg/mL | GI50 at 48 h [3]: > 30 µg/mL | IC50 (Bacillus subtilis): 19.2 µg/mL (≈ 41.4 µM) | MIC (Bacillus subtilis): > 256 µg/mL | IC50 (Escherichia coli): 14.8 µg/mL (≈ 31.9 µM) | MIC (Escherichia coli): > 256 µg/mL | IC50 [4]: 13.7 µg/mL (≈ 29.6 µM) | MIC [4]: > 30 µg/mL | GI50 at 48 h [5]: > 30 µg/mL | GI90 [5]: > 30 µg/mL

Cc1ccc(/C=C\C(=O)N2N=C(c3ccncc3)OC2c2c[nH]c3ccccc23)cc1 (configuration not stated)
IC50 [1]: > 30 µg/mL | MIC [1]: > 30 µg/mL | IC50 (Pseudomonas fluorescens): 4.13 µg/mL (≈ 10.1 µM) | MIC (Pseudomonas fluorescens): 8.66 µg/mL (≈ 21.2 µM) | IC50 (Staphylococcus aureus): 5.73 µg/mL (≈ 14 µM) | MIC (Staphylococcus aureus): 9.46 µg/mL (≈ 23.2 µM) | GI90 (HeLa): > 30 µg/mL | GI50 at 72 h [2]: > 30 µg/mL | GI90 (A549): > 30 µg/mL | GI50 at 48 h [3]: > 30 µg/mL | IC50 (Bacillus subtilis): 6.53 µg/mL (≈ 16 µM) | MIC (Bacillus subtilis): 10.3 µg/mL (≈ 25.1 µM) | IC50 (Escherichia coli): 3.33 µg/mL (≈ 8.15 µM) | MIC (Escherichia coli): 7.86 µg/mL (≈ 19.2 µM) | IC50 [4]: > 30 µg/mL | MIC [4]: > 30 µg/mL | GI50 at 48 h [5]: > 30 µg/mL | GI90 [5]: > 30 µg/mL
